This note sets out measurements from US7067537B2, “Substituted thiazole derivatives bearing 3-pyridyl groups, process for preparing the same and use thereof” (Takeda Pharmaceutical Company Limited, priority 2000, dated 2006).

What is called melting point is the temperature of the solid-liquid transition. What is called IC50 is the point on the concentration scale where inhibition reaches its midpoint.

The structures appear in SMILES notation. Where a name gives a salt, the structure may show the parent alone.

Test system in one data set: not given
Experiment: not given
Conditions: not given
`CC(=O)Nc1cccc(-c2csc(-c3cnccc3C(F)(F)F)n2)c1.Cl` gave a melting point of 154 to 155 °C.

`CS(=O)(=O)Nc1ccc(-c2csc(-c3cnccc3C(F)(F)F)n2)cc1.Cl` displayed a melting point of 205 to 207 °C.

As to `COc1cccc(-c2csc(-c3cccnc3)n2)c1` (as salt: HBr) [Compound 49], the melting point is 231 to 233 °C.

Consider `Fc1ccc(-c2nc(-c3cccnc3)cs2)cc1` (as salt: HBr) [Compound 136], for which the melting point lay within 225 to 227 °C.

In the case of `COc1ccc(-c2csc(-c3cnccc3C(F)(F)F)n2)cc1` (as salt: HCl) [Compound 64], the melting point fell in the range of 93 to 95 °C.

On to `COc1ccncc1-c1nc(-c2ccc(C)cc2C)cs1` (as salt: HCl) [Compound 85], for which the melting point turned out to be 154 °C.

Regarding `Cc1ccncc1-c1csc(-c2ccc(F)cc2)n1` (as salt: HCl) [Compound 137, 3-[2-(4-fluorophenyl)-1,3-thiazol-4-yl]-4-methylpyridine], the melting point lay in the range of 180 to 183 °C.

With `CS(=O)(=O)Nc1cccc(-c2csc(-c3cnccc3C(F)(F)F)n2)c1` (as salt: hydrochloride) [Compound 161, N-(3-{2-[4-(trifluoromethyl)pyridin-3-yl]-1,3-thiazol-4-yl}phenyl)methanesulfonamide], the melting point fell in the range of 162 to 165 °C.

For the molecule `FC(F)(F)c1ccncc1-c1nc(-c2ccc(Br)cc2)cs1` [Compound 53], the melting point lay in the range of 69 to 71 °C.

Molecule `Cc1ccncc1-c1nc(-c2ccc(Cl)cc2)cs1` [Compound 74, 3-[4-(4-chlorophenyl)-1,3-thiazol-2-yl]-4-methylpyridine] gave a melting point of 119 °C.

In the case of `Cc1ccncc1-c1nc(-c2ccc(F)cc2)cs1` [Compound 78, 3-[4-(4-fluorophenyl)-1,3-thiazol-2-yl]-4-methylpyridine], the melting point was 129 °C.

Consider `Cc1ccc(-c2csc(-c3cnccc3C)n2)cc1` [Compound 103], for which the melting point turned out to be 98 °C.

As for `Cc1ccncc1-c1csc(-c2ccc(S(N)(=O)=O)cc2)n1` [Compound 135, 4-[4-(4-methyl-pyridin-3-yl)-1,3-thiazol-2-yl]benzenesulfonamide], the melting point lay in the range of 192 to 195 °C.

Consider `NC(=O)CNc1ccncc1-c1nc(-c2ccc(Cl)cc2)cs1` [Compound 144], for which the melting point was found to be 202 °C.

In turn, `CC(C)(O)c1ccncc1-c1nc(-c2ccc(Cl)cc2)cs1` [Compound 145, 2-{3-[4-(4-chlorophenyl)-1,3-thiazol-2-yl]pyridin-4-yl}propan-2-ol] had a melting point of 146 °C.

On to `CN(C)C(=O)c1ccncc1-c1nc(-c2ccc(Cl)cc2)cs1` [Compound 146, 3-[4-(4-chlorophenyl)-1,3-thiazol-2-yl]-N,N-dimethylisonicotinamide], for which the melting point was found to be 195 °C.

As for `NC(=O)c1ccncc1-c1nc(-c2ccc(Cl)cc2)cs1` [Compound 147], the melting point was determined as 201 °C.

Turning to `CNC(=O)c1ccncc1-c1nc(-c2ccc(Cl)cc2)cs1` [Compound 148], the melting point worked out at 205 °C.

In turn, `Cc1ccncc1-c1nc(-c2ccc(Cl)cc2)c(Cl)s1` [Compound 150, 3-[5-chloro-4-(4-chlorophenyl)-1,3-thiazol-2-yl]-4-methylpyridine] yielded a melting point of 146 °C.

In turn, `Cc1ccc(-c2nc(-c3cnccc3C)sc2F)cc1` [Compound 153, 3-[5-fluoro-4-(4-methylphenyl)-1,3-thiazol-2-yl]-4-methylpyridine] showed a melting point of 96 °C.

For `Cc1ccncc1-c1nc(-c2ccc(S(N)(=O)=O)cc2)cs1` [Compound 154, 4-[2-(4-methylpyridin-3-yl)-1,3-thiazol-4-yl]benzenesulfonamide], the melting point was 219 °C.

Turning to `NS(=O)(=O)c1ccc(-c2csc(-c3cnccc3C(F)(F)F)n2)cc1` [Compound 155, 4-{2-[4-(trifluoromethyl)pyridin-3-yl]-1,3-thiazol-4-yl}benzenesulfonamide], the melting point was 217 °C.

Molecule `Nc1ccc(-c2csc(-c3cnccc3C(F)(F)F)n2)cc1` [Compound 156, 4-{2-[4-(trifluoromethyl)pyridin-3-yl]-1,3-thiazol-4-yl}aniline] gave a melting point of 71 to 72 °C.

For the molecule `Cc1ccncc1-c1nc(-c2ccc(C(=O)O)cc2)cs1` [Compound 163, 4-[2-(4-methylpyridin-3-yl)-1,3-thiazol-4-yl]benzoic acid], the melting point was greater than 300 °C.

As to `NC(=O)c1ccc(-c2csc(-c3cnccc3C(F)(F)F)n2)cc1` [Compound 164, 4-{2-[4-(trifluoromethyl)pyridin-3-yl]-1,3-thiazol-4-yl}benzamide], the melting point is 192 to 193 °C.

Take `Cc1ccncc1-c1nc(-c2ccc(C(N)=O)cc2)cs1` [Compound 165, 4-[2-(4-methylpyridin-3-yl)-1,3-thiazol-4-yl]benzamide]: the melting point lay within 222 to 225 °C.

`Cc1ccncc1-c1csc(-c2cccc(C(=O)N(C)C)c2)n1` [Example 27, N,N-dimethyl-3-[4-(4-methylpyridin-3-yl)-1,3-thiazol-2-yl]benzamide] showed a melting point of 106 to 108 °C.

Molecule `Cc1ccncc1-c1csc(-c2ccc(C(N)=O)cc2)n1` [Example 28, 4-[4-(4-methylpyridin-3-yl)-1,3-thiazol-2-yl]benzamide] registered a melting point of 155 to 157 °C.

In turn, `CNC(=O)c1ccc(-c2nc(-c3cnccc3C)cs2)cc1` [Example 29, N-methyl-4-[4-(4-methylpyridin-3-yl)-1,3-thiazol-2-yl]benzamide] showed a melting point of 115 °C.

As for `CNC(=O)c1ccc(C)c(-c2nc(-c3cnccc3C)cs2)c1` [Example 30, N, 4-dimethyl-3-[4-(4-methylpyridin-3-yl)-1,3-thiazol-2-yl]benzamide], the melting point was 140 to 143 °C.

`Cc1ccncc1-c1csc(-c2cc(C(=O)N(C)C)ccc2C)n1` [Example 31, N,N,4-trimethyl-3-[4-(4-methylpyridin-3-yl)-1,3-thiazol-2-yl]benzamide] registered a melting point of 180 to 182 °C.

`Cc1ccncc1-c1csc(-c2cc(C(=O)N3CCCC3)ccc2C)n1` [Example 32, 4-methyl-3-{2-[2-methyl-5-(pyrrolidine-1-ylcarbonyl)phenyl]-1,3-thiazol-4-yl}pyridine] displayed a melting point of 149 to 150 °C.

Turning to `CNC(=O)c1ccc(F)c(-c2nc(-c3cnccc3C)cs2)c1` [Example 33, 4-fluoro-N-methyl-3-[4-(4-methylpyridin-3-yl)-1,3-thiazol-2-yl]benzamide], the melting point fell in the range of 195 to 196 °C.

In the case of `CNC(=O)c1cc(-c2nc(-c3cnccc3C)cs2)ccc1Cl` [Example 34, 2-chloro-N-methyl-5-[4-(4-methylpyridin-3-yl)-1,3-thiazol-2-yl]benzamide], the melting point was 127 to 129 °C.

For `CC(=O)Nc1ccc(-c2nc(-c3cnccc3C)cs2)cc1` [Example 36, N-{4-[4-(4-methylpyridin-3-yl)-1,3-thiazol-2-yl]phenyl}acetamide], the melting point was in the range of 205 to 207 °C.

On to `Cc1ccncc1-c1csc(-c2cc(NC=O)ccc2C)n1` [Example 37, 4-methyl-3-[4-(4-methylpyridin-3-yl)-1,3-thiazol-2-yl]phenylformamide], for which the melting point was 127 to 129 °C.

For the molecule `CC(=O)Nc1ccc(C)c(-c2nc(-c3cnccc3C)cs2)c1` [Example 38, N-{4-methyl-3-[4-(4-methylpyridin-3-yl)-1,3-thiazol-2-yl]phenyl}acetamide], the melting point lay within 151 to 152 °C.

A further data set deals with T1, Rat C17,20-lyase (Rattus norvegicus, UniProt P11715).
T1 construct: The orchis was homogenized and centrifuged to prepare a microsome; from tissue; host or cells: testis (orchis) microsomes of 13-week-old male SD rat
T1 sequence (P11715 1-507): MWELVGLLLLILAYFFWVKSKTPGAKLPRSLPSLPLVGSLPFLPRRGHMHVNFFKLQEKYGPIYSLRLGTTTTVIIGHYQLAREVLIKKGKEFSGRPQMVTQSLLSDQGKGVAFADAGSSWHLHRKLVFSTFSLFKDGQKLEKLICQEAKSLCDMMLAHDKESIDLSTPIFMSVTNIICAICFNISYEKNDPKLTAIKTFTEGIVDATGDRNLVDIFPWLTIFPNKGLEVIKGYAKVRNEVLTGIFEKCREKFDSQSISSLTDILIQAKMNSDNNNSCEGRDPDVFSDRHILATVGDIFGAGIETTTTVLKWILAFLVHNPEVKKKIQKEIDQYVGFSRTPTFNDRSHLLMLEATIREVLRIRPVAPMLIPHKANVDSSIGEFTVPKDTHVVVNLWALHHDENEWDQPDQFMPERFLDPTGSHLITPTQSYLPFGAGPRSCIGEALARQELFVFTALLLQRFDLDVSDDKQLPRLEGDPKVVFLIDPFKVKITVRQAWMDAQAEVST
The data set can be described thus: Assay of steroid C17,20-lyase-inhibitory activity in rat (testis microsome, TLC of 3H-labelled products). Format: biochemical. The settings on record: microsome from orchis of 13-week-old male SD rat; [1.2-3H]-17α-hydroxyprogesterone 10 nM, NADPH; pH 7.4; 37° C., 7 min; read-out: In vitro enzyme inhibitory activity (IC50) Rat C17,20-lyase. The method, then:
Assay of Steroid C17,20-lyase-inhibitory Activity in Rat
The assay was performed according to The Prostate, Vol. 26, 140–150 (1995). The orchis was removed from 13-week-old male SD rat. The orchis was homogenized and centrifuged to prepare a microsome. The [1.2-^3H]-17α-hydroxyprogesterone having a final concentration of 10 nM, NADPH solution and the test compound were was dissolved in a 100 mM phosphate buffer solution (10 μl, pH 7.4). Microsome protein (7 μg/10 μl) was added and the mixture was incubated at 37° C. for 7 min. Ethyl acetate (40 μl) was added and the mixture was centrifuged, and the substrate and the product (androstenedione and testosterone) in the supernatant were separated by silica gel thin layer chromatography (TLC). The spot was detected and quantitatively assayed by a BAS 2000 bioimage analyzer. Taking the production amount when the test compound was not added (control) as 100%, the concentration (IC50) of the compound necessary for 50% inhibition of the product amount relative to the control was calculated.
As to `COc1cccc(-c2csc(-c3cccnc3)n2)c1` [Compound 49], the IC50 came out at 33 nM.

Take `FC(F)(F)c1ccncc1-c1nc(-c2ccc(Br)cc2)cs1` [Compound 53]: the IC50 is less than 10 nM.

`COc1ccc(-c2csc(-c3cnccc3C(F)(F)F)n2)cc1` [Compound 64]: the IC50 is less than 10 nM.

`Cc1ccncc1-c1nc(-c2ccc(F)cc2)cs1` [Compound 78, 3-[4-(4-fluorophenyl)-1,3-thiazol-2-yl]-4-methylpyridine]: the IC50 was less than 10 nM.

`COc1ccncc1-c1nc(-c2ccc(C)cc2C)cs1` [Compound 85]: the half-inhibitory concentration (IC50) was 30 nM.

As for `Cc1ccc(-c2csc(-c3cnccc3C)n2)cc1` [Compound 103], the IC50 was less than 10 nM.

Take `Fc1ccc(-c2nc(-c3cccnc3)cs2)cc1` [Compound 136]: the half-maximal inhibitory concentration (IC50) worked out at 14 nM.
